Laboratory results: patent US7026355B2, “Use of rhein or diacerhein compounds for the treatment or prevention of vascular diseases” (Transition Therapeutics Inc., priority 2001, dated 2006)
Numbered stars: 1 amine (or outer) side, 2 acyl side, 3 side chain; on linkers, the order of the positions; unused ones are H or OH. Bridge positions count the residues as written; N and C are the ends. Square brackets hold non-standard residues; d marks the D form. Peptide text beside a SMILES is read from it. I, II: the chains in the order shown. Actinocin(9to1) = Cc1c2oc3c(C)ccc(C(=O)[*:1])c3nc-2c(C(=O)[*:2])c(N)c1=O; NMeV = CN[C@H](C(=O)O)C(C)C; Sar = CNCC(=O)O

Key:
[1] = test system: Rat aortic smooth muscle cells (A-10 cells); test: in vitro assay of smooth muscle cell migration after scrape injury; assay type: cell-based; details: incubation 20 h
Procedure: The following in vitro assay was conducted to illustrate the effect of diacerhein on smooth muscle cell migration. Increased smooth muscle cell migration following injury is one of the predominant causes of obstruction of the vascular system following stenting and other vascular procedures.
Rat aortic smooth muscle cells (A-10 cells) were seeded at 2.5×10^5 cells/well in 6 well plates using Dulbecco's Modified Eagle Medium™ (Gibco BRL Cat. # 11885-084), 10% FBS and 1% Antibiotic Antimycotic (Gibco BRL Cat. # 15240). Confluency of cells after about 8 h was between 80˜90%. Cells were injured with the single edge cell scraper (one injury/well) then washed twice with PBS and treated with diacerhein at concentrations ranging from 50 μM to 100 μM. Images were taken using a X5 modulation objective (Zeiss, Germany) attached to a Zeiss Axiovert 100 inverted microscope equipped with Hoffman Modulation contrast optical filters (Greenvale, N.Y.).
The images were taken at zero time and following the incubation of smooth muscle cells with diacerhein for a period of 20 h.

A-10 cells [2] = test: CellTiter 96 AQueous One Solution Cell Proliferation Assay; assay type: cell-based, Rat; details: for Measure of Proliferative Activity (Absorbance at 490 nm): 24 h, no treatment 0.775; for proliferative activity as compared to untreated cells: concentration higher than 10^−7 M
Procedure: A-10 cells were seeded at 1.0×10^3 cells/well in 96 well plates using Dulbecco's Modified Eagle Medium™ (Gibco BRL Cat. # 11885-084), 10% FBS and 1% Antibiotic Antimycotic (Gibco BRL Cat. # 15240) and allowed to grow overnight. Prior to treatment, cells were washed and the culture medium was replaced with culture medium containing either rhein or diacerhein at varying concentrations ranging from 10^−4 to 10^−8M.
(§1) The CellTiter 96® AQueous One Solution Cell Proliferation Assay (Promega) was used as a colorimetric method for determining the number of viable cells in proliferation. Cell proliferation assays were performed by adding a small amount of the CellTiter 96® AQueous One Solution Reagent directly to culture wells, incubating for 1–4 hours and then recording absorbance at 490 nm with a 96 well plate reader. The quantity of formazan product as measured by the amount of 490 nm absorbance is known in the art to be directly proportional to the number of living cells in the culture. For the assay, cells were incubated with rhein or diacerhein for 24 h. In addition, cells from selected concentrations are also treated with rhein or diacerhein and are incubated for 1–3 days. The cells are harvested and counted using a hemocytometer. Trypan blue staining was carried out to determine % of viable cells vs dead cells.

A-10 cells [3] = test: Trypan blue staining, % of viable cells vs dead cells; assay type: cell-based; details: no treatment 96.2%
Procedure: as §1

[4] = test system: aortic smooth muscle cells; test: prolonged incubation (1-3 days), cells counted with a hemocytometer; assay type: cell-based, Rat
Procedure: as §1
Intimal smooth muscle cell (SMC) proliferation plays a key role in atherosclerosis and restenosis following vascular injury. Therefore, rhein or diacerhein is predicted to effectively treat these disease states.

[5] = 5 to 50 mg/kg for periods as long as 50 weeks; cited from earlier work
[6] = test system: prostaglandin E2 synthesis; details: cited from earlier work
iron regulatory protein = details: inflamed human monocytes; cited from earlier work
[7] = clinical trials of actinomycin-D eluting stents; cited from earlier work

Compound | migration of smooth muscle cells ([1]; 50 μM) | migration of smooth muscle cells ([1]; 100 μM) | Measure of Proliferative Activity (Absorbance at 490 nm) (A-10 cells [2]; Treatment with 2.5 × 10^−5 M) | Measure of Proliferative Activity (Absorbance at 490 nm) (A-10 cells [2]; Treatment with 5.0 × 10^−5 M) | Measure of Proliferative Activity (Absorbance at 490 nm) (A-10 cells [2]; Treatment with 7.5 × 10^−5 M) | Measure of Proliferative Activity (Absorbance at 490 nm) (A-10 cells [2]; Treatment with 10^−4 M) | Measure of Proliferative Activity (Absorbance at 490 nm) (A-10 cells [2]; Treatment with 10^−5 M) | Measure of Proliferative Activity (Absorbance at 490 nm) (A-10 cells [2]; Treatment with 10^−6 M) | Measure of Proliferative Activity (Absorbance at 490 nm) (A-10 cells [2]; Treatment with 10^−7 M) | proliferative activity as compared to untreated cells (A-10 cells [2]) | Percentage of viable cells (A-10 cells [3]; Treatment with 10^−4 M) | Percentage of viable cells (A-10 cells [3]; Treatment with 10^−5 M) | Percentage of viable cells (A-10 cells [3]; Treatment with 10^−6 M) | anti-proliferative activity on prolonged incubation (FIG. 2) [4] | severity of osteoarthritis [5] | prostaglandin E2 synthesis [6] | iron regulatory protein activation (iron regulatory protein) | prevention of restenosis [7]
CC(=O)Oc1cccc2c1C(=O)c1c(OC(C)=O)cc(C(=O)O)cc1C2=O [Diacerhein, 4,5-bis(acetyloxy)-9,10-dihydro-4,5dihydroxy-9,10-dioxo-2-anthracenecarboxylic acid] | significantly inhibited | significantly inhibited | 0.561 | 0.419 | 0.408 | 0.380 | 0.646 | 0.710 | 0.738 | decrease in proliferative activity | 97.0% | 97.5% | 96.2% | anti-proliferative activity | reduced the severity of osteoarthritis | stimulates prostaglandin E2 synthesis | inhibits iron regulatory protein activation | 
O=C(O)c1cc(O)c2c(c1)C(=O)c1cccc(O)c1C2=O [Rhein, 9,10-dihydro-4,5-dihydroxy-9,10-dioxo-2-anthracenecarboxylic acid] |  |  | 0.577 | 0.518 | 0.460 | 0.430 | 0.675 | 0.738 | 0.891 | decrease in proliferative activity | 97.1% | 96.0% | 97.5% | anti-proliferative activity |  |  |  | 
Cc1c2oc3c(C)ccc(C(=O)N[C@@H]4C(=O)N[C@H](C(C)C)C(=O)N5CCC[C@H]5C(=O)N(C)CC(=O)N(C)[C@@H](C(C)C)C(=O)O[C@@H]4C)c3nc-2c(C(=O)N[C@@H]2C(=O)N[C@H](C(C)C)C(=O)N3CCC[C@H]3C(=O)N(C)CC(=O)N(C)[C@@H](C(C)C)C(=O)O[C@@H]2C)c(N)c1=O [actinomycin D] (I: T[dV]P[Sar][NMeV] / II: T[dV]P[Sar][NMeV]; ester I:1-I:C, II:1-II:C; linker I:N-II:N via Actinocin(9to1)) |  |  |  |  |  |  |  |  |  |  |  |  |  |  |  |  |  | ineffectiveness
